According to patent US11209437B2, “Fluorescent probe and preparation method and use thereof” (Fluorescence Diagnosis (shanghai) Biotech Company Ltd., priority 2016, dated 2021):

Assays:
[1] = Viscosity responsiveness: fluorescence emission spectra of probes in glycerol and methanol; format: physicochemical; conditions: for Emission wavelength: excited at maximum excitation wavelength of each probe; for Fluorescence ratio in glycerol to methanol: probe 1×10^−5 M
Experimental: Probes 1 to 98, 101, 103, 105, 107, 109, 111, 114, 117, and 120, and the reference probes 99, 100, 102, 104, 106, 108, 110, 112, 113, 115, 116, 118, 119, 121, BG-CCVJ and BG-Gly-CCVJ were dissolved in dimethyl sulfoxide, respectively, to prepare mother liquors having a concentration of 1×10^−2 M, to each of which glycerol and methanol were added and uniformly mixed, to prepare solutions finally having a concentration of 1×10^−5 M. Depending on the probes, fluorescence emission spectra of the probes were detected successively with the maximum excitation wavelength of each probe under the same conditions, and the results were shown in Table 1.
That is, these probes are sensitive to viscosity changes and have viscosity responsiveness.

[2] = Fluorescence of free probe prior to binding to a protein tag; format: physicochemical
Experimental: (§1) Probes were mixed with corresponding protein tags to obtain mixed samples, in which the final probe concentration was 5 μM, and the final protein tag concentration was 10 μM. The mixed samples were incubated 37° C. for 1 hr, fluorescence spectrophotometer was used to detect the change in fluorescence intensity, and the results are shown in Table 1.
(§2) From the quantum yield of probe bound to protein tag, after reacting with the protein tags, the probes of the Examples could be detected to have significant signal enhancement in corresponding excitation transmission channels, the fluorescence activation multiple reached several hundreds to a thousand or more, and the brightness was high, which illustrates that after the probes of the Examples are bound to the protein tags, fluorescence of the probes can be activated, and the probes have good fluorescent molecular switching properties. In contrast, though the fluorescence of the reference probes could also be activated, the quantum yield of activated fluorescence was very low, and the brightness was very poor. In particular, in view of comparison results between probe 98 and reference probe 99, probe 101 and reference probe 102, probe 103 and reference probe 104, probe 105 and reference probe 106, probe 107 and reference probe 108, probe 109 and reference probe 110, probe 111 and reference probe 112, probe 114 and reference probe 115, probe 117 and reference probe 118, probe 120 and reference probe 121 in Table 1, for the same fluorescent dye, when the ligand is connected to the electron donor part of the fluorescent dye, the fluorescence activation brightness of the probe is much higher than the reference probe in which ligand is connected to the electron acceptor part of the fluorescent dye.

SNAP protein tags = target: T1, SNAP protein tags (Homo sapiens, UniProt P16455, A127T/A154D/C150Q/C62A/E30R/G131K/G132T/G153L/K125A/K32I/L33F/M134L/N157G/Q115S/Q116H/R128A/R135S/S151G/S152D/S159E); assay: Fluorescence activation of probe after incubation with corresponding protein tag (SNAP); format: biochemical; conditions: probe 5 μM, protein tag 10 μM, 37° C., 1 hr
T1 sequence (P16455 1-182 E30R/K32I/L33F/C62A/Q115S/Q116H/K125A/A127T/R128A/G131K/G132T/M134L/R135S/C150Q/S151G/S152D/G153L/A154D/N157G/S159E): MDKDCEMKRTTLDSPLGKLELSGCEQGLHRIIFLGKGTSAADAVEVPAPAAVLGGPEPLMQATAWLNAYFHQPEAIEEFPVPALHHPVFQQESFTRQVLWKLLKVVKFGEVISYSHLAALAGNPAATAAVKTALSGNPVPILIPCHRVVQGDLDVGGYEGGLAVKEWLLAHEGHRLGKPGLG
Experimental: as §1, §2

Emission wavelength [1] [nm]	Fluorescence ratio in glycerol to methanol [1]	Quantum yield of free probe [2]	Fluorescence activation multiple (SNAP protein tags)	Quantum yield of probe bound to protein tag (SNAP protein tags)	Structure (SMILES)
621	158	<0.001	29	0.02	CN(CCO)c1ccc(-c2ccc(/C=C(\C#N)C(=O)NCc3ccc(COc4nc(N)nc5[nH]cnc45)cc3)s2)cc1 [Reference Probe 118, reference compound]
655	362	<0.001	15	0.01	CN(C)c1ccc(-c2ccc(/C=C(\C#N)C(=O)NCc3ccc(COc4nc(N)nc5[nH]cnc45)cc3)s2)s1 [Reference Probe 119, reference compound]
655	219	<0.001	39	0.01	CN(CCO)c1ccc(-c2ccc(/C=C(\C#N)C(=O)NCc3ccc(COc4nc(N)nc5[nH]cnc45)cc3)s2)s1 [Reference Probe 121, reference compound]
501	260	<0.001	170	0.02	N#C/C(=C\c1cc2c3c(c1)CCCN3CCC2)C(=O)NCc1ccc(COc2nc(N)nc3[nH]cnc23)cc1 [Reference Probe BG-CCVJ, reference compound]
	260	<0.001	60		N#C/C(=C\c1cc2c3c(c1)CCCN3CCC2)C(=O)NCC(=O)NCc1ccc(COc2nc(N)nc3[nH]cnc23)cc1 [Reference Probe BG-Gly-CCVJ, reference compound]
510	410	0.001	146	0.15	CN(CCOC(=O)NCc1ccc(COc2nc(N)nc3[nH]cnc23)cc1)c1ccc(/C=C(\C#N)c2nc3ccccc3o2)cc1 [probe 2]
532	399	0.0019	139	0.27	CN(CCOC(=O)NCc1ccc(COc2nc(N)nc3[nH]cnc23)cc1)c1ccc(/C=C(\C#N)c2nc3ccccc3s2)cc1 [probe 3]
480	562	<0.001	490	0.35	CN(CCOC(=O)NCc1ccc(COc2cc(Cl)nc(N)n2)cc1)c1ccc(/C=C(\C#N)C(=O)OC(C)(C)C)cc1 [probe 4]
555	790	<0.001	1174	0.15	CN(CCOC(=O)NCc1ccc(COc2cc(Cl)nc(N)n2)cc1)c1ccc(/C=C(\C#N)c2nc3ccccc3o2)cc1 [probe 5]
610	1183	<0.001	989	0.37	CN(CCOC(=O)NCc1ccc(COc2cc(Cl)nc(N)n2)cc1)c1ccc(/C=C(\C#N)c2nc3ccccc3s2)cc1 [probe 6]
482	655	<0.001	431	0.39	CC(C)(C)OC(=O)/C(C#N)=C/c1ccc(N(CCO)CCOC(=O)NCc2ccc(COc3nc(N)nc4[nH]cnc34)cc2)cc1 [probe 10]
481	422	0.0013	270	0.36	CC(C)(C)OC(=O)/C(C#N)=C/c1ccc(N(CCOC(=O)NCCCS(=O)(=O)O)CCOC(=O)NCc2ccc(COc3nc(N)nc4[nH]cnc34)cc2)cc1 [probe 11]
482	405	0.0012	351	0.41	COCCOCCOCCOCCOCCN(CCOC(=O)NCc1ccc(COc2nc(N)nc3[nH]cnc23)cc1)c1ccc(/C=C(\C#N)C(=O)OC(C)(C)C)cc1 [probe 12]
483	391	<0.001	315	0.29	CN(CCC(=O)NCc1ccc(COc2nc(N)nc3[nH]cnc23)cc1)c1ccc(/C=C(\C#N)C(=O)OC(C)(C)C)cc1 [probe 13]
531	560	<0.001	771	0.18	CN1C(=O)/C(=C/c2ccc(N(C)CCOC(=O)NCc3ccc(COc4nc(N)nc5[nH]cnc45)cc3)cc2)N=C1c1ccccc1 [probe 14]
580	311	<0.001	359	0.21	CN1C(=O)/C(=C/c2ccc(N(C)CCOC(=O)NCc3ccc(COc4cc(Cl)nc(N)n4)cc3)cc2)N=C1/C=C/c1ccccc1 [probe 16]
535	301	0.0017	265	0.45	CN(CCOC(=O)NCc1ccc(COc2nc(N)nc3[nH]cnc23)cc1)c1ccc(C2=C(C#N)C(=C(C#N)C#N)OC2(C)C)cc1 [probe 18]
535	299	0.0012	361	0.45	CN(CCOC(=O)NCc1ccc(COc2cc(Cl)nc(N)n2)cc1)c1ccc(C2=C(C#N)C(=C(C#N)C#N)OC2(C)C)cc1 [probe 19]
590	1821	<0.001	610	0.36	CN(CCOC(=O)NCc1ccc(COc2nc(N)nc3[nH]cnc23)cc1)c1cc2sc(/C=C(\C#N)c3nc4ccccc4o3)cc2s1 [probe 22]
610	1235	<0.001	712	0.42	CN(CCOC(=O)NCc1ccc(COc2nc(N)nc3[nH]cnc23)cc1)c1cc2sc(/C=C(\C#N)c3nc4ccccc4s3)cc2s1 [probe 23]
555	1681	<0.001	590	0.48	CN(CCOC(=O)NCc1ccc(COc2cc(Cl)nc(N)n2)cc1)c1cc2sc(/C=C(\C#N)C(=O)OC(C)(C)C)cc2s1 [probe 24]
590	1621	<0.001	670	0.36	CN(CCOC(=O)NCc1ccc(COc2cc(Cl)nc(N)n2)cc1)c1cc2sc(/C=C(\C#N)c3nc4ccccc4o3)cc2s1 [probe 25]
610	1123	<0.001	910	0.42	CN(CCOC(=O)NCc1ccc(COc2cc(Cl)nc(N)n2)cc1)c1cc2sc(/C=C(\C#N)c3nc4ccccc4s3)cc2s1 [probe 26]
